Results taken from PubChem BioAssay AID1996.
Values after ≈ are worked out from the molar mass of the structure shown.

conditions: buffer; pH 7.4; 200.0 µM

solubility kinetic [µg/mL]	SMILES
36.7 (≈ 143 µM)	Cc1cc(C)cc(OCC(=O)Nc2ccncc2)c1
< 0.3	O=C(NCCc1ccccc1)c1c(O)c2ccccc2[nH]c1=O
> 64.6	CN(Cc1ccccc1)S(=O)(=O)c1ccc(NC(=O)C2CCCCC2C(=O)O)cc1 (configuration not stated)
4.9 (≈ 15.8 µM)	Cc1ccc2c(c1)C(=O)C(=O)N2CCCOc1ccccc1C
> 42.3	CC(CC(=O)O)CC(=O)Nc1cc([N+](=O)[O-])ccc1O (configuration not stated)
47.9 (≈ 135 µM)	CCOc1ccc(C(CC(=O)O)NC(=O)C(CC)c2ccccc2)cc1 (configuration not stated)
0.8 (≈ 2.68 µM)	N#Cc1ccccc1CN1C(=O)c2ccccc2S1(=O)=O
28.7 (≈ 101 µM)	Cc1ccccc1OCC(=O)O/N=C(\N)c1ccncc1
> 41.7	CN(CC(=O)Nc1ccc(F)cc1)C(=O)C1CCCC1
2.2 (≈ 6.82 µM)	Cc1ccc(C)c(NC(=O)CSc2cccc3cccnc23)c1
> 35.9	CC(OC(=O)c1cccs1)C(=O)NC1CC1 (configuration not stated)
> 47.9	COCCOC(=O)C1=C(C)NC2(O)c3ccccc3C(=O)C12O (configuration not stated)
> 39.2	CC(=O)c1c(C)nc(-c2cccc([N+](=O)[O-])c2)n1O
> 43.4	O=C(Nc1ccc(N2CCOCC2)nc1)c1cccs1
> 43.7	CCn1c(SCC(=O)OC)nnc1-c1ccc(C)cc1
1.4 (≈ 5.57 µM)	COc1cccc2[nH]c(=O)c(-c3ccccc3)cc12
14.8 (≈ 41.1 µM)	CCOC(=O)c1cc(NC(=O)c2cccs2)ccc1N1CCOCC1
2.7 (≈ 6.16 µM)	CCN(c1ccccc1)S(=O)(=O)c1ccc(N2CCN(c3ccc(O)cc3)CC2)nc1
40.3 (≈ 145 µM)	S=C1NCN(Cc2ccco2)CN1Cc1ccco1
> 46.5	Cc1cnc(C(=O)OCc2cc(=O)n3c(C)cccc3n2)cn1
> 55.1	Cc1ccc(S(C)(=O)=NS(=O)(=O)c2cccc3nsnc23)cc1 (configuration not stated)
33.9 (≈ 94.1 µM)	C/C(=N/OC(=O)c1ccc(C)cc1)C(=O)c1ccc(Br)cc1
6.5 (≈ 23.9 µM)	CC(C)(C)c1ccc(SCCc2ccncc2)cc1

solubility kinetic [µg/mL]	SMILES
36.3 (≈ 137 µM)	O=C(CN1CCOCC1)Nc1cccc([N+](=O)[O-])c1
> 60.5	COc1cc(S(=O)(=O)Nc2ccc3c(c2)C(=O)N(C)C3=O)ccc1NC(C)=O
68.1	COc1ccccc1N1CCN(C(=O)c2cc(S(=O)(=O)N3CCCCC3)ccc2C)CC1.Cl
10.8 (≈ 38.6 µM)	CC1CCCN(S(=O)(=O)c2ccc(Cl)s2)C1 (configuration not stated)
4 (≈ 12.9 µM)	Cc1ccc(C)c(OC(=O)CN2C(=O)c3ccccc3C2=O)c1
> 34.9	O=C(Nc1ccncc1)c1ccccc1Cl
30.9 (≈ 110 µM)	O=C(Cc1ccccc1)NCC1OCCc2ccccc21 (configuration not stated)
> 51.3	CC(C)OP(=O)(OC(C)C)C(NC(=O)c1ccccc1)C(N)=O (configuration not stated)
1.4 (≈ 5.23 µM)	Cc1ccccc1C(=O)OCc1cnc(Cl)s1
12 (≈ 32.1 µM)	Nc1nc(NCCN2CCOCC2)nc(NCc2ccccc2)c1[N+](=O)[O-]
13.7 (≈ 52.6 µM)	CCOc1ncccc1C(=O)Nc1ccc(F)cc1
> 47.5	Cc1ccc(NS(=O)(=O)c2ccc3c(c2)CCC(=O)N3)cc1
> 47	Cc1[nH]c2ccc(C(=O)NCCN3CCCCCC3)cc2c1C
> 44.8	O=C(COc1ccccc1)N1CCN(c2ncccn2)CC1
5.6 (≈ 14.6 µM)	Cc1ccc(C(=O)Nc2ccc(N3CCOCC3)nc2N2CCOCC2)cc1
0.6 (≈ 1.82 µM)	Cc1nc(-c2noc(-c3ccccc3Cl)n2)c(C(F)(F)F)o1
> 41.6	Cc1cccc(NC(=O)CCC(=O)N2CCOCC2)n1
16.6 (≈ 50.9 µM)	CC(=O)Nc1ccc(C(=O)NC2CCSc3ccccc32)cc1 (configuration not stated)
> 35	CC1(C)CN2C(=O)c3ccccc3C2(C)S1 (configuration not stated)
0.2 (≈ 0.598 µM)	Cc1cccc(NC(=O)c2nc[nH]c2C(=O)Nc2cccc(C)c2)c1
> 45.1	Nc1nnc(SCC(=O)NC2CCCCCCC2)s1
37.9 (≈ 113 µM)	O=[N+]([O-])c1cc(C(F)(F)F)cc([N+](=O)[O-])c1N1CCCNCC1

SMILES	solubility kinetic [µg/mL]
Cc1ccc(NC(=O)c2cc(-c3ccccc3)n(CCCN3CCOCC3)c2C)cc1	19.9 (≈ 47.7 µM)
Cc1ccc(C2CN(C)CC2C(=O)c2ccc(F)cc2)cc1 (configuration not stated)	35.8 (≈ 120 µM)
